Reference: ChEMBL document CHEMBL1158818, “Alkaloids from the sponge Monanchora unguifera” (J Nat Prod, 2005)

Tests used:
Format in all cases: functional, cell-based
DU-145 = experiment: Cytotoxicity against human DU145 cells
HT-29 = experiment: Cytotoxicity against human HT-29 cells
A549 = experiment: Cytotoxicity against human A549 cells
P388 = experiment: Cytotoxicity against mouse P388 cells
SK-MEL-28 = experiment: Cytotoxicity against human SK-MEL-28 cells

Measured: IC50

CCCCCCC[C@@H]1C[C@@H]2CCC3=C(C(=O)OCCCCCCC[C@@H]4C[C@@H]5CCC6=C(C(=O)OCCCCNC(=N)N)C(C)N=C(N4)N65)C(C)N=C(N1)N32 (stereo not given in full) [BATZELLADINE J]
> 1 µg/mL: DU-145 | HT-29 | A549 | P388 | SK-MEL-28
